# Columns and labels:
# MDA-PR cells = assay: Growth and resensitization of paclitaxel-resistant MDA-MB-231 cells; type: cell-based, human; settings: 30 nM paclitaxel (3 days on, 7 days off) in absence or presence of 1 μM Targretin (10 days on), 3 months
# Method: (§1) The human breast cancer cell line MDA-MB-231 was obtained from the American Type Culture Collection (Manassas, Va., USA), and MDA-MB-231 cells were routinely cultured in RPMI-1640 supplemented with 10% fetal bovine serum and 2 mM glutamine in 5% CO2. Bexarotene was synthesized at Ligand Pharmaceuticals Inc. (San Diego, Calif., USA), and paclitaxel was purchased from Sigma Chemicals (St. Louis, Mo., USA). The protocol for establishment of paclitaxel-resistant MDA-MB-231 cells and resensitization to paclitaxel by bexarotene treatment was described previously (5). Briefly, MDA-MB-231 cells were exposed to regimens on a 10-day cycle: a 3-day treatment with 30 nM paclitaxel followed by a 7-day exposure to control medium. […] These MDA-PR cells were then treated with the combination of 30 nM paclitaxel (3 days on and 7 days off) in the absence or presence of 1 μM Targretin (10 days on) in a new 10-day cycle for 3 months.
# LCP1 = assay: RNA microarray of LCP1 expression in paclitaxel-resistant MDA-MB-231 (MDA-PR) cells; type: cell-based, human; settings: for effect on LCP1 expression (in words): paclitaxel alone, or bexarotene together with paclitaxel
# Method: as §1
# [1] = test system: non small cell lung cancer; settings: addition of bexarotene to chemotherapy, first-line, advanced non small cell lung cancer, both phase III trials; cited from earlier work
# [2] = test system: non small cell lung cancer; assay: Kaplan-Meier survival analysis of bexarotene-treated patients in the SPIRIT I and II phase III trials; type: in vivo, human (patients); settings: bexarotene plus chemotherapy, control arm 284 days
# Method: Bexarotene (also called Targretin, LGD1069) is a selective modulator of retinoid X receptors (RXRs) approved for treating refractory advanced-stage cutaneous T-cell lymphoma (1, 2). […] Consequently, two large phase III trials (SPIRIT I and SPIRIT II) were conducted to evaluate the efficacy and safety of standard chemotherapy agents with or without bexarotene as a first-line therapy in treating advanced non small cell lung cancer. […] A known side-effect of retinoid therapy is the elevation of serum lipids, and the majority of the bexarotene treated patients in the two SPIRIT trials developed hypertriglyceridemia, as expected. […] This intriguing correlation between survival and triglyceride level induced by bexarotene observed in both SPIRIT trials is illustrated in FIG. 1A. […] These findings prompted the search for biomarkers which can predict bexarotene sensitivity and identify a subgroup of non small cell lung cancer patients whose survival could be prolonged by bexarotene treatment.
# FIG. 1. Sub-population analysis and study design. […] Kaplan-Meier survival estimates in patients gave median survivals of 170 days, 263 days, and 371 days for these three groups, respectively. […] B. Overview of genome-wide association study design. In Stage I discovery phase, 150 samples (74 cases and 76 controls) were genotyped using the Affymetrix GeneChip 500K Mapping Array Set (Nsp array+Sty array) containing 500,000 SNPs following the Affymetrix standard protocol. 255 SNPs were then selected for stage II study. In Stage II, 400 samples were individually genotyped using the 255 Sequenom iPLEX SNP assays, including 147 samples (minus one case and two controls) used in the Stage I for the Verification group and 253 new samples for the Replication group. In the Replication group, 129 samples were included from the patients with middle level of triglyceride percentile (HTG Mid).
# [3] = bexarotene-treated patients, two SPIRIT trials; cited from earlier work
SMILES,effect on growth / paclitaxel sensitivity of MDA-PR cells (MDA-PR cells),effect on LCP1 expression (in words) (LCP1),overall survival in the intent-to-treat population [1],median survival (Kaplan-Meier estimate) ([2]; 'HTG Hi' group: 67% to maximum triglyceride) [days],median survival (Kaplan-Meier estimate) ([2]; 'HTG Lo' group: triglyceride up to 33% of maximum level) [days],median survival (Kaplan-Meier estimate) ([2]; 'HTG Mid' group: middle third (33% to 67%)) [days],patients who developed NCI grade 3 or higher hypertriglyceridemia [3],"LCP1 expression up-regulation compared to MDA-PR cells (LCP1; 30 nM paclitaxel/1 μM bexarotene for 3 months, p-value=6.86×10^−6) [fold]"
CC(=O)O[C@H]1C(=O)[C@@]2(C)[C@H]([C@H](OC(=O)c3ccccc3)[C@]3(O)C[C@H](OC(=O)[C@H](O)[C@@H](NC(=O)c4ccccc4)c4ccccc4)C(C)=C1C3(C)C)[C@]1(OC(C)=O)CO[C@@H]1C[C@@H]2O [paclitaxel],no effect,no effect,–,–,–,–,–,–
C=C(c1ccc(C(=O)O)cc1)c1cc2c(cc1C)C(C)(C)CCC2(C)C [bexarotene],re-sensitized to paclitaxel,significantly up-regulated,did not improve overall survival,371,170,263,30-40%,3.8
